Laboratory results from patent US12252484B2, “Pyrazolopyridine compounds for the treatment of autoimmune disease” (Hoffmann-La Roche Inc., priority 2018, dated 2025).
pIC50: −log10 of the molar value. Where two headings read alike, the source gives them in different places.

Target: T1, human TLR7 (Homo sapiens, UniProt Q9NYK1)
T1 sequence (Q9NYK1 27-1049): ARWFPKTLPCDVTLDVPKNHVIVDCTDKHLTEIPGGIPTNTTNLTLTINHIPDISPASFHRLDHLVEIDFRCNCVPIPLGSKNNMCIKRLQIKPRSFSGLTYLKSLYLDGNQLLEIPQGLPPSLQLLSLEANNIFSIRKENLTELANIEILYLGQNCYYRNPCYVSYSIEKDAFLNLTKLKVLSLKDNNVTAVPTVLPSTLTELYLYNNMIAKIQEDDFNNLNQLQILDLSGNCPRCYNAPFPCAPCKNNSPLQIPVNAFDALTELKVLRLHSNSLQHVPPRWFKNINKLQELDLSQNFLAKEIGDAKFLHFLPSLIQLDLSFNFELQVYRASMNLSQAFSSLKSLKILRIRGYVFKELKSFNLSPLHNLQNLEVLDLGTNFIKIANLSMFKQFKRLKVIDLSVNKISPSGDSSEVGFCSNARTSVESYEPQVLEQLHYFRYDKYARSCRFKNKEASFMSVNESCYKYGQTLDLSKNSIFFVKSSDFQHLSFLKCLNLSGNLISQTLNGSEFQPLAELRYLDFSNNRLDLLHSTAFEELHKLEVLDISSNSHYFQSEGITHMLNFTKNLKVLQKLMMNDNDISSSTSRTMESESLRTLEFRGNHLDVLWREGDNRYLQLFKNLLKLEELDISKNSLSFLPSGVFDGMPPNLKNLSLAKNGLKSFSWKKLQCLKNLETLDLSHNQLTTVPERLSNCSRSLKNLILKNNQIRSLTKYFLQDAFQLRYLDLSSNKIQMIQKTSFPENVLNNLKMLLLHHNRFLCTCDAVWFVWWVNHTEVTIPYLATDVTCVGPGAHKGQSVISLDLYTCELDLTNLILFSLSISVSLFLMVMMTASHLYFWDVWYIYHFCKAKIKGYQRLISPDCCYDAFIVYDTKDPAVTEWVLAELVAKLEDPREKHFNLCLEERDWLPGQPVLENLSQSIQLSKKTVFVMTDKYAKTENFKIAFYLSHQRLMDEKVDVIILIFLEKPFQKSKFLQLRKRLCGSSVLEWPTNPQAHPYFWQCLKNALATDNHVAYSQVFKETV
Assay: HEK293-Blue-hTLR-7 cells assay (SEAP reporter, R848 stimulation)
Type: cell-based
Method: The following tests were carried out in order to determine the activity of the compounds of formula (I) in HEK293-Blue-hTLR-7/8/9 cells assay.
HEK293-Blue-hTLR-7 Cells Assay:
A stable HEK293-Blue-hTLR-7 cell line was purchased from InvivoGen (Cat. #: hkb-htlr7, San Diego, California, USA). These cells were originally designed for studying the stimulation of human TLR7 by monitoring the activation of NF-κB. A SEAP (secreted embryonic alkaline phosphatase) reporter gene was placed under the control of the IFN-β minimal promoter fused to five NF-κB and AP-1-binding sites. The SEAP was induced by activating NF-κB and AP-1 via stimulating HEK-Blue hTLR7 cells with TLR7 ligands. Therefore the reporter expression was declined by TLR7 antagonist under the stimulation of a ligand, such as R848 (Resiquimod), for incubation of 20 hrs. The cell culture supernatant SEAP reporter activity was determined using QUANTI-Blue™ kit (Cat. #: rep-qb1, Invivogen, San Diego, Ca, USA) at a wavelength of 640 nm, a detection medium that turns purple or blue in the presence of alkaline phosphatase.
HEK293-Blue-hTLR7 cells were incubated at a density of 250,000˜450,000 cells/mL in a volume of 170 μL in a 96-well plate in Dulbecco's Modified Eagle's medium (DMEM) containing 4.5 g/L glucose, 50 U/mL penicillin, […], […], 2 mM L-glutamine, 10% (v/v) heat-inactivated fetal bovine serum with addition of 20 μL test compound in a serial dilution in the presence of final DMSO at 1% and 10 μL of 20 uM R848 in above DMEM, perform incubation under 37° C. in a CO2 incubator for 20 hrs. Then 20 μL of the supernatant from each well was incubated with 180 μL Quanti-blue substrate solution at 37° C. for 2 hrs and the absorbance was read at 620˜655 nm using a spectrophotometer. The signalling pathway that TLR7 activation leads to downstream NF-κB activation has been widely accepted, and therefore similar reporter assay was modified for evaluating TLR7 antagonist.

[1] = HEK293-Blue-hTLR-7 cells, R848 ligand, 20 hrs incubation, read-out: TLR7 IC50

| SMILES | pIC50 [1] | pIC50 |
| --- | --- | --- |
| C[C@@H]1CN(c2ccc(C#N)n3nccc23)C[C@H](C(=O)N2CCC3(CCNCC3)CC2)O1 [Example 28, 4-[(2R,6R)-2-(3,9-diazaspiro[5.5]undecane-3-carbonyl)-6-methyl-morpholin-4-yl]pyrazolo[1,5a]pyridine-7-carbonitrile] | 6.49 |  |
| C[C@@H]1CN(c2ccc(C#N)n3nccc23)C[C@H](C(=O)NC2C3CCC2CNC3)O1 (stereo partly drawn) [Example 26, (2R,6R)-N-(3-azabicyclo[3.2.1]octan-8-yl)-4-(7-cyanopyrazolo[1,5-a]pyridin-4-yl)-6-methyl-morpholine-2-carboxamide] | 7.70 |  |
| C[C@@H]1CN(c2ccc(C#N)n3nccc23)C[C@H](C(=O)NC2CC3(CNC3)C2)O1 [Example 3, (2R,6R)-N-(2-azaspiro[3.3]heptan-6-yl)-4-(7-cyanopyrazolo[1,5-a]pyridin-4-yl)-6-methyl-morpholine-2-carboxamide] | 6.80 |  |
| C[C@@H]1CN(c2ccc(C#N)n3nccc23)C[C@H](C(=O)N[C@H]2CC[C@@H](O)CC2)O1 [Example 20, Cis-(2R,6R)-4-(7-cyanopyrazolo[1,5-a]pyridin-4-yl)-N-(4-hydroxycyclohexyl)-6-methyl-morpholine-2-carboxamide] | 6.46 |  |
| COCCNC(=O)[C@H]1CN(c2ccc(C#N)n3nccc23)C[C@@H](C)O1 [Example 9, (2R,6R)-4-(7-cyanopyrazolo[1,5-a]pyridin-4-yl)-N-(2-methoxyethyl)-6-methyl-morpholine-2-carboxamide] | 6.19 |  |
| C[C@@H]1CN(c2ccc(C#N)n3nccc23)C[C@H](C(=O)NC(C)(C)CO)O1 [Example 16, (2R,6R)-4-(7-cyanopyrazolo[1,5-a]pyridin-4-yl)-N-(2-hydroxy-1,1-dimethyl-ethyl)-6-methyl-morpholine-2-carboxamide] | 6.34 |  |
| C[C@@H]1CN(c2ccc(C#N)n3nccc23)C[C@H](C(=O)NC2CC3COCC(C2)N3)O1 (stereo partly drawn) [Example 22, Endo-(2R,6R)-4-(7-cyanopyrazolo[1,5-a]pyridin-4-yl)-6-methyl-N-[3-oxa-9-azabicyclo[3.3.1]nonan-7-yl]morpholine-2-carboxamide] | 8.00 |  |
| C[C@@H]1CN(c2ccc(C#N)n3nccc23)C[C@H](C(=O)NC2CC3CCCC(C2)N3)O1 (stereo partly drawn) [Example 14, (2R,6R)-N-(9-azabicyclo[3.3.1]nonan-3-yl)-4-(7-cyanopyrazolo[1,5-a]pyridin-4-yl)-6-methyl-morpholine-2-carboxamide] | 8.15 |  |
| C[C@@H]1CN(c2ccc(C#N)n3nccc23)C[C@H](C(=O)NC2CC3CCCC(C2)N3C)O1 (stereo partly drawn) [Example 35, (2R,6R)-4-(7-cyanopyrazolo[1,5-a]pyridin-4-yl)-6-methyl-N-(9-methyl-9-azabicyclo[3.3.1]nonan-3-yl)morpholine-2-carboxamide] |  | 8.40 |
| C[C@@H]1CN(c2ccc(C#N)n3nccc23)C[C@H](C(=O)NC23CC4CC(CC(C4)C2)C3)O1 [Example 12, (2R,6R)-N-(1-adamantyl)-4-(7-cyanopyrazolo[1,5-a]pyridin-4-yl)-6-methyl-morpholine-2-carboxamide] | 6.68 |  |
| C[C@@H]1CN(c2ccc(C#N)n3nccc23)C[C@H](C(=O)NC(C)(C)CN)O1 [Example 41, (2R,6R)-N-(2-amino-1,1-dimethyl-ethyl)-4-(7-cyanopyrazolo[1,5-a]pyridin-4-yl)-6-methyl-morpholine-2-carboxamide] | 7.34 |  |
| C[C@@H]1CN(c2ccc(C#N)n3nccc23)C[C@H](C(=O)NC2C3CNC[C@@H]32)O1 (stereo partly drawn) [Example 31, Trans-(2R,6R)-N-(3-azabicyclo[3.1.0]hexan-6-yl)-4-(7-cyanopyrazolo[1,5-a]pyridin-4-yl)-6-methyl-morpholine-2-carboxamide] | 7.30 |  |
| CCC(C)(C)NC(=O)[C@H]1CN(c2ccc(C#N)n3nccc23)C[C@@H](C)O1 [Example 17, (2R,6R)-4-(7-cyanopyrazolo[1,5-a]pyridin-4-yl)-N-(1,1-dimethylpropyl)-6-methyl-morpholine-2-carboxamide] | 6.44 |  |
| C[C@@H]1CN(c2ccc(C#N)n3ncc(F)c23)C[C@H](C(=O)NC2CCN(C)CC2)O1 [Example 47, (2R,6R)-4-(7-cyano-3-fluoro-pyrazolo[1,5-a]pyridin-4-yl)-6-methyl-N-(1-methyl-4-piperidyl)morpholine-2-carboxamide] | 8.10 |  |
| C[C@@H]1CN(c2ccc(C#N)n3nccc23)C[C@H](C(=O)NC2CNC[C@H]2F)O1 (stereo partly drawn) [Example 5, Cis-(2R,6R)-4-(7-cyanopyrazolo[1,5-a]pyridin-4-yl)-6-methyl-N-(4-fluoropyrrolidin-3-yl) morpholine-2-carboxamide] | 7.14 |  |
| C[C@@H]1CN(c2ccc(C#N)n3nccc23)C[C@H](C(=O)NC2CCN(C)CC2)O1 [Example 1, (2R,6R)-4-(7-cyanopyrazolo[1,5-a]pyridin-4-yl)-6-methyl-N-(1-methyl-4-piperidyl)morpholine-2-carboxamide] | 7.77 |  |
| C[C@@H]1CN(c2ccc(C#N)n3nccc23)C[C@H](C(=O)N[C@H]2CNC[C@H]2F)O1 [Example 2, (2R,6R)-4-(7-cyanopyrazolo[1,5-a]pyridin-4-yl)-N-[(3S,4R)-4-fluoropyrrolidin-3-yl]-6-methyl-morpholine-2-carboxamide] | 7.04 |  |
| C[C@@H]1CN(c2ccc(C#N)n3nccc23)C[C@H](C(=O)N[C@H]2CC[C@H](O)CC2)O1 [Example 21, Trans-(2R,6R)-4-(7-cyanopyrazolo[1,5-a]pyridin-4-yl)-N-(4-hydroxycyclohexyl)-6-methyl-morpholine-2-carboxamide] | 6.38 |  |
| C[C@@H]1CN(c2ccc(C#N)n3nccc23)C[C@H](C(=O)NC2(C)CCNCC2)O1 [Example 19, (2R,6R)-4-(7-cyanopyrazolo[1,5-a]pyridin-4-yl)-6-methyl-N-(4-methyl-4-piperidyl)morpholine-2-carboxamide] | 7.00 |  |
| C[C@@H]1CN(c2ccc(C#N)n3nccc23)C[C@H](C(=O)NC2C3CNCC2COC3)O1 (stereo partly drawn) [Example 27, (2R,6R)-4-(7-cyanopyrazolo[1,5-a]pyridin-4-yl)-6-methyl-N-(3-oxa-7-azabicyclo[3.3.1]nonan-9-yl)morpholine-2-carboxamide] | 7.20 |  |
| C[C@@H]1CN(c2ccc(C#N)n3nccc23)C[C@H](C(=O)NC2CCNC2)O1 (stereo partly drawn) [Example 25, (2R,6R)-4-(7-cyanopyrazolo[1,5-a]pyridin-4-yl)-6-methyl-N-pyrrolidin-3-yl-morpholine-2-carboxamide] | 6.82 |  |
| C[C@@H]1CN(c2ccc(C#N)n3nccc23)C[C@H](C(=O)NCC(C)(C)CN)O1 [Example 39, (2R,6R)-N-(3-amino-2,2-dimethyl-propyl)-4-(7-cyanopyrazolo[1,5-a]pyridin-4-yl)-6-methyl-morpholine-2-carboxamide] | 7.52 |  |
| C[C@@H]1CN(c2ccc(C#N)n3nccc23)C[C@H](C(=O)NCC2CNCC2(F)F)O1 (stereo partly drawn) [Example 18, (2R,6R)-4-(7-cyanopyrazolo[1,5-a]pyridin-4-yl)-N-[(4,4-difluoropyrrolidin-3-yl)methyl]-6-methyl-morpholine-2-carboxamide] | 7.26 |  |
